Laboratory results from patent US20100144779A1, “Marine Alkalod Makaluvamines and Derivatives Thereof” (THE UAB RESEARCH FOUNDATION, priority 2007, published 2010).
Like-named read-outs stand apart in the source and are kept apart here.

Assays:
Test in all cases: MTT growth inhibition assay
Assay type in all cases: cell-based, human
[1] = tested on: BEAS-2B; details: normal cells, 72 hr, read-out: Growth inhibitory activity (IC50)
Procedure: (§1) Several of the disclosed compounds were also tested for their ability to inhibit the growth of other cancer cell lines as shown in Tables 4 and 5. The cell lines were obtained from the American Type Culture Collection (Rockville, Md.) and were grown as follows: MCF-7 (p53 wt) breast cancer cells were grown in DMEM media containing 1 mM non-essential amino acids, Earle's BSS, 1 mM Na pyruvate, and 10 mg/L bovine insulin. MDA-MB-468 (p53 mt) cells were grown in DMEM/F-12 Ham's media (1:1 mixture); H838 (p53 wt) cells were grown in RPMI 1640. H358 (p53 null), H1299 (p53 null) cells were grown in RPMI 1640 supplemented with 1.5 g/L Na2CO3; 4.5 g/L glucose, 10 mM HEPES buffer, 1 mM Na pyruvate and 2 mM L-glutamine. A549 (p53 wt) cells were grown in Ham's F12K medium supplemented with 2 mM L-glutamine and 1.5 g/L Na2CO3; LNCaP (p53 wt) cells were grown in RPMI 1640 supplemented with 1.5 g/L Na2CO3, 4.5 g/L glucose, 10 mM HEPES buffer, 1 mM Na pyruvate and 2 mM L-glutamine. PC3 (p53 null) cells were cultured in Ham's F-12K medium containing 2 mM L-glutamine. TRAMP Cl cells were cultured in DEME medium with 4 mM L-glutamine adjusted to contain 1.5 g/L sodium bicarbonate and 4.5 g/L glucose supplemented with 0.005 mg/ml bovine insulin and 10 nM dehydroisoandrosterone, 5% fetal bovine serum and 5% Nu-Serum IV; HPAC (p53 wt) pancreatic cancer cells were grown in a 1:1 mixture of DMEM and Ham's F12 medium containing 1.2 g/L Na2CO3, 2.5 mM L-glutamine, 15 mM HEPES and 0.5 mM Na pyruvate supplemented with 0.002 mg/mL insulin, 5 μg/mL transferrin, 40 ng/mL hydrocortisone, 10 ng/mL epidermal growth factor and 5% fetal bovine serum. PANC-1 (p53 mt) cells were cultured with RPMI 1640 containing 1 mM HEPES buffer, 25 μg/mL gentamicin, 1.5 g/L Na2CO3 and 0.25 μg/mL amphotericin B. BxPC-3 (p53 mt) cells were grown in RPMI 1640 medium, MiaPaCa-2 (p53 mt) and S2013 (p53 mt) cells were grown in DMEM, cell line CFPAC1 (p53 mt) was grown in Iscove's MEM supplemented with 4 mM L-glutamine; T98G (p53 mt) glioma cells were cultured with DMEM supplemented with 1% Na pyruvate, and 1% non-essential amino acids; HCT116 human colon cancer cell lines were kindly provided by Dr. Bert Vogelstein (Johns Hopkins Oncology Center, Baltimore, Md.). The HCT116 cell line was maintained in McCoy's-5A media; Human bronchial epithelial cell line BEAS 2B was cultured in DMEM medium; Human mammary epithelial cell line MCF10A was cultured in a 1:1 mixture of DMEM and Ham's F12 medium containing 5% horse serum, 15 mM hepes buffer, 10 ug/ml insulin, 20 ng/ml EGF, 100 ng/ml choleratoxin and 0.5 ug/ml hydrocortisone; the human primary fibroblast cell lines IMR90-EEA and IMR90-E1A (transformed using the adenoviral oncogene E1A) were gifts from Dr. S. Lee (Harvard University, Boston, Mass.). IMR90 and IMR90-E1A cells were cultured in DMEM medium.
(§2) All media contained 10% FBS and 1% penicillin/streptomycin unless otherwise specified. The effects of disclosed compounds on human cancer cell growth, expressed as the percentage of cell survival, were determined by the MTT [3-(4,5-Dimethyl-2-thiazolyl)-2,5-diphenyl-2H-tetrazolium bromide] assay. Cells were grown in 96-well plates and exposed to the test compounds (0, 0.01, 0.1, 1, 10, 100 μM) for 72 hr followed by addition of 10 μL MTT solution (5 mg/mL; Sigma; St. Louis, Mo.) to each well. The plates were incubated for 2-4 hr at 37° C. The supernatant was then removed and formazan crystals were dissolved with 100 μL of DMSO. The absorbance at 570 nm was recorded with an OPTImax microplate reader (Molecular Devices; Sunnyvale, Calif.). The cell survival percentages were calculated by dividing the mean OD of compound containing wells by that of DMSO-control wells. Three separate experiments were accomplished to determine the IC50.

[2] = tested on: BXPC3; details: 72 hr, read-out: Growth inhibitory activity (IC50)
Procedure: as §1, §2

[3] = tested on: CFPAC1; details: 72 hr, read-out: Growth inhibitory activity (IC50)
Procedure: as §1, §2

[4] = tested on: H1299; details: 72 hr, read-out: Growth inhibitory activity (IC50)
Procedure: as §1, §2

[5] = tested on: H358; details: 72 hr, read-out: Growth inhibitory activity (IC50)
Procedure: as §1, §2

[6] = tested on: H838; details: 72 hr, read-out: Growth inhibitory activity (IC50)
Procedure: as §1, §2

[7] = tested on: HPAC; details: cancer cell, 72 hr, read-out: Growth inhibitory activity (IC50)
Procedure: as §1, §2

[8] = tested on: IMR90-EEA; details: normal cells, 72 hr, read-out: Growth inhibitory activity (IC50)
Procedure: as §1, §2

[9] = tested on: LNCaP; details: cancer cell, 72 hr, read-out: Growth inhibitory activity (IC50)
Procedure: as §1, §2

[10] = tested on: MCF10A; details: normal cells, 72 hr, read-out: Growth inhibitory activity (IC50)
Procedure: as §1, §2

[11] = tested on: MDA-MB-468; details: MDA-MB-468, cancer cell, 72 hr, read-out: Growth inhibitory activity (IC50)
Procedure: as §1, §2

[12] = tested on: Mia-paca; details: 72 hr, read-out: Growth inhibitory activity (IC50)
Procedure: as §1, §2

[13] = tested on: Panc-1; details: Panc-1, cancer cell, 72 hr, read-out: Growth inhibitory activity (IC50)
Procedure: as §1, §2

[14] = tested on: S2013; details: S2013, cancer cell, 72 hr, read-out: Growth inhibitory activity (IC50)
Procedure: as §1, §2

[15] = tested on: U87MG; details: cancer cell, 72 hr, read-out: Growth inhibitory activity (IC50)
[16] = Homo sapiens, BXPC-3, BXPC3, cancer cell
[17] = Homo sapiens, CFPAC-1, CFPAC1, cancer cell
[18] = Homo sapiens, NCI-H1299, H1299, cancer cell
[19] = Homo sapiens, NCI-H358, H358, cancer cell
[20] = Homo sapiens, NCI-H838, H838, cancer cell
[21] = Homo sapiens, MIA PaCa-2, cancer cell

Compound | IC50 [1] [nM] | IC50 ([2]; BXPC3, cancer cell) [nM] | IC50 ([3]; CFPAC1, cancer cell) [nM] | IC50 ([4]; H1299, cancer cell) [nM] | IC50 ([5]; H358, cancer cell) [nM] | IC50 ([1]; Homo sapiens) [nM] | IC50 [2, 16] [nM] | IC50 [3, 17] [nM] | IC50 [4, 18] [nM] | IC50 [5, 19] [nM] | IC50 [6, 20] [nM] | IC50 ([7]; Homo sapiens) [nM] | IC50 ([8]; Homo sapiens) [nM] | IC50 ([9]; Homo sapiens) [nM] | IC50 ([10]; Homo sapiens, MCF-10A) [nM] | IC50 ([11]; Homo sapiens) [nM] | IC50 [12, 21] [nM] | IC50 ([13]; Homo sapiens) [nM] | IC50 ([14]; Homo sapiens) [nM] | IC50 ([15]; Homo sapiens, U-87 MG) [nM] | other results
O=C1C(NCc2ccccc2)=CC2=NCCc3c[nH]c1c32 [Compound 4c] | 1440 | 2870 | 8770 | 1420 | 436 |  |  |  |  |  |  |  |  |  |  |  |  |  |  |  | IC50 ([6]; H838, cancer cell): 160 nM; IC50 [7]: 689 nM; IC50 [8]: 2770 nM; IC50 [9]: 2750 nM; IC50 [10]: 5270 nM; IC50 [11]: 126 nM; IC50 ([12]; cancer cell): 345 nM; IC50 [13]: 141 nM; IC50 [14]: 3850 nM; IC50 [15]: 2880 nM
O=C1C(NCCc2ccccc2)=CC2=NCCc3c[nH]c1c32 [Compound 4d] | 695 | 2940 | 5110 | 4270 | 398 |  |  |  |  |  |  |  |  |  |  |  |  |  |  |  | IC50 ([6]; H838, cancer cell): 260 nM; IC50 [7]: 1130 nM; IC50 [8]: 3770 nM; IC50 [9]: 161 nM; IC50 [10]: 6820 nM; IC50 [11]: 101 nM; IC50 ([12]; cancer cell): 982 nM; IC50 [13]: 258 nM; IC50 [14]: 5390 nM; IC50 [15]: 4280 nM
O=C(O)C(F)(F)F.O=C1C(NCCc2ccc3c(c2)OCO3)=CC2=NCCc3c[nH]c1c32 [Compound 6] |  |  |  |  |  | 2240 | 3210 | 9100 | 5940 | 1200 | 665 | 2920 | 5700 | 3960 | 13100 | 428 | 2740 | 587 | 11200 | 5640 | 
COc1ccc(CCNC2=CC3=NCCc4c[nH]c(c43)C2=O)cc1OC.O=C(O)C(F)(F)F [Compound 20] |  |  |  |  |  | 1690 | 5010 | 4270 | 5990 | 983 | 838 | 2850 | 2880 | 24500 | 3400 | 277 | 1320 | 720 | 29600 | 3040 | 
O=C(O)C(F)(F)F.O=C1C(NCc2ccc(F)cc2)=CC2=NCCc3c[nH]c1c32 [Compound 28] |  |  |  |  |  | 587 | 2300 | 5400 | 968 | 170 | 110 | 535 | 1490 | 1290 | 5330 | 125 | 315 | 104 | 4450 | 1710 | 
